In PubChem BioAssay AID624258 (Broad Institute, 2012):
Calls of active or inactive are those of the source. The rule behind the calls is not given here.

Assay: Yeast SKN7 toxicity growth rescue counterscreen, Saccharomyces cerevisiae, plate reader, dose confirmatory (AID 624258);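 note: growth read after three days of incubation at 30 °C; 0% = median of neutral control wells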
Conditions: S. cerevisiae SKN7-toxicity growth rescue, plate reader; at 2.1 µM (top of the series)
With `O=S(=O)(Nc1ccccc1)c1ccc(Oc2ncc(C(F)(F)F)cc2Cl)cc1` the growth rescue activity was -15.3% (inactive).

Same assay, conditions: S. cerevisiae SKN7-toxicity growth rescue, plate reader; at 6.8 µM (top of the series)
In the case of `CCc1c(C2(O)CCCCC2)[nH]c2ccc(C(F)(F)F)cc12`, the growth rescue activity is reported as 85.9% (inactive). With `CC(C)(C)C(=O)N1CCN(c2ccc([N+](=O)[O-])cc2Cl)CC1` the growth rescue activity was -14.7% (inactive). For `O=C(c1cc([N+](=O)[O-])cc([N+](=O)[O-])c1)N(Cc1nnc(-c2ccccc2Cl)o1)C1CC1`, the growth rescue activity was -38% (inactive). In the case of `Cc1cc(C(=O)COC(=O)Cc2n[nH]c(=O)c3ccccc23)c(C)n1-c1cccc(C(F)(F)F)c1`, the growth rescue activity is reported as -21.5% (inactive).

Same assay, conditions: S. cerevisiae SKN7-toxicity growth rescue, plate reader; at 19.5 µM (top of the series)
In the case of `O=C(O)/C(=C\c1ccc(F)cc1)c1ccc(-c2ccccc2)cc1`, the growth rescue activity is reported as -66.8% (inactive). In the case of `OCCN(CCO)c1cc2c3ccccc3ccc2c2ccccc12`, the growth rescue activity is reported as 9.38% (inactive). With `N#Cc1cc2c(nc1SCc1ccccc1)CCCC2=O` the growth rescue activity was -24.7% (inactive). With `CC(=O)NC(=S)NNC(=O)C(c1ccccc1)c1ccccc1` the growth rescue activity was -30.2% (inactive). In the case of `Cc1cccc(N2CCN(C(=O)C3COc4ccccc4O3)CC2)c1C` (centres undefined), the growth rescue activity is reported as -49.4% (inactive). For `Cc1ccccc1Oc1nc(-c2ccccn2)nc2ccccc12`, the growth rescue activity was -58.6% (inactive). With `CCCCCCC(Cl)(Cn1ccnc1)c1ccccc1` (centres undefined) the growth rescue activity was -69.6% (inactive). With `O=S(=O)(c1c(Cl)sc(Cl)c1Br)N1CCCC1` the growth rescue activity was -25% (inactive). For `CC1=CC(C)(C)N(S(=O)(=O)c2ccc(C)cc2)c2ccc(C)cc21`, the growth rescue activity was -55.9% (inactive). With `Cc1nc2ccc(NC(=O)Cc3ccc4c(c3)OCCO4)cc2s1` the growth rescue activity was 28.8% (inactive). With `S=C(NCc1ccco1)Nc1ccc(Oc2ccc(Cl)cc2)cc1` the growth rescue activity was 26.1% (inactive). In the case of `C[C@]12CCC(=O)C=C1CCC1C2CC[C@@]2(C)C1CC[C@]2(C)O` (some centres undefined), the growth rescue activity is reported as -16.5% (inactive). With `CCCCNc1c(-c2ccc(-c3ccc(OC)cc3)c(OC)c2)nc2ccccn12` the growth rescue activity was -84.6% (inactive). In the case of `COC(=O)c1cccc2c1-c1ccccc1/C2=N/O`, the growth rescue activity is reported as 30.5% (inactive). For `Cc1cc(N2CCN(c3ccccc3)CC2)nc(-c2ccccc2O)n1`, the growth rescue activity was -42.6% (inactive). With `O=C(N/N=C/c1cc(Cl)cc([N+](=O)[O-])c1O)c1ccccc1NS(=O)(=O)c1cccs1` the growth rescue activity was -5.73% (inactive). For `Cc1cccc(/C=N/NC(=O)C(C)Nc2cccc3ccccc23)n1` (centres undefined), the growth rescue activity was -1.71% (inactive). For `O=C(NCc1ccccc1)c1ccc2nccnc2c1`, the growth rescue activity was 17.6% (inactive). In the case of `CCc1cc(-c2[nH]ncc2-c2ccc([N+](=O)[O-])cc2)c(O)cc1OC`, the growth rescue activity is reported as -43.8% (inactive). In the case of `COc1ccccc1-c1sc2cc3c(cc2c1C#Cc1cncn1C)OCO3`, the growth rescue activity is reported as -72% (inactive). For `Clc1ccc(-c2n[nH]c3c2CCC3)cc1Cl`, the growth rescue activity was -54.5% (inactive). For `Fc1ccccc1COc1ccc(Br)cc1CNCc1ccncc1`, the growth rescue activity was -7.59% (inactive). For `[O-][n+]1cccc2c(Br)cc(Br)c(O)c21`, the growth rescue activity was -82.7% (inactive). With `Nc1nonc1C(=O)NCCN=Cc1cc(Cc2ccccc2)cc(Br)c1O` the growth rescue activity was -81% (inactive). For `O=C1Nc2c(Br)cccc2C1=O`, the growth rescue activity was -9.27% (inactive). In the case of `CCc1sc(C(=O)Nc2nc(-c3ccccn3)cs2)cc1C`, the growth rescue activity is reported as -81% (inactive). With `COc1ccccc1N1CCN(C(=O)CCNS(=O)(=O)c2ccc(Br)s2)CC1` the growth rescue activity was 9.41% (inactive). In the case of `Cc1nc2c(o1)C(=O)c1ccccc1C2=Nc1ccccc1`, the growth rescue activity is reported as -29.5% (inactive). For `C=CCNc1nc(-c2ccccn2)nnc1-c1ccccc1`, the growth rescue activity was -28.2% (inactive). For `CC1=NN(C(N)=S)C(=O)C1N=Nc1cccc(Cl)c1C` (centres undefined), the growth rescue activity was -42.1% (inactive). With `c1cnc2c(c1)ccc1cccnc12` the growth rescue activity was -64% (inactive). For `O=S(=O)(Nc1ccc(-n2cccc2)cc1)c1ccc(Cl)c(Cl)c1`, the growth rescue activity was -92.1% (inactive). For `O=c1c(O)c(-c2ccccc2)oc2ccccc12`, the growth rescue activity was -14.5% (inactive). In the case of `C=C(C)COc1ccc(-c2[nH]ncc2-c2ccc(Br)cc2)c(O)c1`, the growth rescue activity is reported as -77.7% (inactive). For `CCCCCOc1ccc(CSc2n[nH]c(C)n2)cc1`, the growth rescue activity was -91.3% (inactive). With `COc1cc(/C=N/O)cc(Br)c1OCc1cccc(Cl)c1` the growth rescue activity was -82% (inactive). With `Nc1cc2nc3ccccc3oc-2cc1=O` the growth rescue activity was -51.6% (inactive). In the case of `COC(=O)C1=C(C)NC(C)=C(C(=O)OCC(C)C)C1c1ccccc1[N+](=O)[O-]` (centres undefined), the growth rescue activity is reported as -47.9% (inactive). With `CC12CNCC(C)(CN(C3(O)C(=O)Nc4ccc(Br)cc43)C1)C2=O` (centres undefined) the growth rescue activity was -39.9% (inactive). With `O=C(Nc1nc(-c2ccccc2)c(-c2ccccc2)o1)c1ccc(F)cc1` the growth rescue activity was -15.6% (inactive). For `CN(c1ccccc1)c1nc(N2CCCC2)nc(-n2ccnc2)n1`, the growth rescue activity was -4.75% (inactive). In the case of `O=C(OCC(=O)C12CC3CC(CC(C3)C1)C2)c1ccc(O)cc1`, the growth rescue activity is reported as -10.8% (inactive). With `Cc1ccc(C)c(/C=C/C(=O)c2ccccc(=O)c2O)c1` the growth rescue activity was -77% (inactive). In the case of `CCCOc1ccc2ccccc2c1/C=C1\SC(=O)NC1=O`, the growth rescue activity is reported as -39.3% (inactive). For `O=C(N/N=C/c1ccc[nH]1)c1sc2ccccc2c1Cl`, the growth rescue activity was -72.2% (inactive). In the case of `CN(C)c1ccc(C=c2c3ccccc3n3c2cc(-c2ccc(Cl)cc2)[n+]3C)cc1`, the growth rescue activity is reported as -52.4% (inactive). With `CC(C)N1CCN(c2ccc(OCC3COC(Cn4cncn4)(c4ccc(Cl)cc4Cl)O3)cc2)CC1` (centres undefined) the growth rescue activity was -56.9% (inactive). For `CCOC(=O)c1ccc(NC(=S)N(Cc2cccnc2)Cc2ccco2)cc1`, the growth rescue activity was -37.1% (inactive). In the case of `COc1ccc(-c2nc(N)sc2C2(O)C(=O)Nc3c(Br)cc(F)cc32)cc1OC` (centres undefined), the growth rescue activity is reported as 0.392% (inactive). With `CC(C)(C)c1ccc(C(=O)NC(=S)NNC(=O)c2cccs2)cc1` the growth rescue activity was -72.5% (inactive). For `Cc1nc(SCc2ccc(OCCC(C)C)cc2)n[nH]1`, the growth rescue activity was -93.3% (inactive). In the case of `O=c1c2ccccc2nc(-c2cccc(Cl)c2)n1O`, the growth rescue activity is reported as -66% (inactive). With `CC12CCC(O)CC1=CCC1C2CCC2(C)C3=NN=CC3CC12` (centres undefined) the growth rescue activity was -53.7% (inactive). In the case of `Cc1cc(O)ccc1N=Cc1c(C(F)(F)F)[nH][nH]c1=O`, the growth rescue activity is reported as -11.8% (inactive). For `Cc1cc2nc(-c3ccc4c(c3)CCC4)ccn2n1`, the growth rescue activity was -10.6% (inactive). In the case of `O=C(O)CSc1cc(NS(=O)(=O)c2ccc(Cl)cc2)c2ccccc2c1O`, the growth rescue activity is reported as -5.81% (inactive). With `O=C1C=C(NCc2ccccc2)c2ccccc2C1=O` the growth rescue activity was 41.7% (inactive). For `O=c1c2ccccc2nc(-c2ccc(-c3ccccc3)cc2)n1-c1ccncc1`, the growth rescue activity was -56.1% (inactive). For `CC(=O)Nc1cccc(NC(=O)CSc2ccc(-c3ccccn3)nn2)c1`, the growth rescue activity was -39.9% (inactive). With `CC1(C)CC(=O)C(N=Nc2ccc3ncsc3c2)=C(O)C1` the growth rescue activity was 0.603% (inactive). With `O=C(c1ccc(-c2ccccc2)cc1)C1CCCN(C(=O)c2cncs2)C1` (centres undefined) the growth rescue activity was -59.8% (inactive). With `Nc1ncnc(Sc2ccccc2)c1[N+](=O)[O-]` the growth rescue activity was 21.4% (inactive). In the case of `CC(C)(C)OC(=O)N1CCC(c2cc(-c3cccs3)n[nH]2)CC1`, the growth rescue activity is reported as -58.6% (inactive). With `CC1CC(C)(O)CC(C(O)CC2CC(=O)NC(=O)C2)C1=O` (centres undefined) the growth rescue activity was 2.36% (inactive). With `C(=C1c2ccccc2-c2ccccc21)c1ccncc1` the growth rescue activity was -46.7% (inactive). For `COc1cc2cnc(-c3ccccc3)c(C(=O)c3ccc(F)cc3)c2cc1OC`, the growth rescue activity was 2.41% (inactive). In the case of `CCCn1nc(C(=O)N2CCN(S(=O)(=O)c3ccc(C)c(C)c3)CC2)c2ccccc2c1=O`, the growth rescue activity is reported as -50.4% (inactive). In the case of `Cc1ccc(Cl)cc1NC1=C/C(=N\S(=O)(=O)c2cccs2)c2ccccc2C1=O`, the growth rescue activity is reported as -24.9% (inactive). For `Cc1c(C(=O)O)cccc1-c1ccc(/C=N/Nc2ccc(Br)cc2)o1`, the growth rescue activity was -92.6% (inactive). In the case of `CC1(OC(=O)CCc2ccccc2)C(=O)C=C2C=C(c3ccc(C#N)cc3)N(Cc3ccco3)C=C2C1=O` (centres undefined), the growth rescue activity is reported as 3.67% (inactive). With `N#CC1C(=N)Cc2ccccc2-c2ccccc21` (centres undefined) the growth rescue activity was -20.3% (inactive). In the case of `CCOC(=O)c1ccc(N2C(=O)CC(N3CCC(O)(c4ccc(Cl)cc4)CC3)C2=O)cc1` (centres undefined), the growth rescue activity is reported as -16.1% (inactive). With `O=C1c2cc(F)ccc2-n2c1nc1ccccc1c2=O` the growth rescue activity was -16.1% (inactive). With `Cc1ccc(S(=O)(=O)/N=C2/C=C(Sc3ncn[nH]3)C(=O)c3ccccc32)cc1` the growth rescue activity was 20.8% (inactive). In the case of `CC1(C)C=Cc2c(ccc3c2OC[C@@H](c2ccc(O)cc2O)C3)O1`, the growth rescue activity is reported as -92.6% (inactive). In the case of `CCCCCCCCCCOC(=O)Cn1c(COc2ccccc2OC)[n+](C)c2ccccc21`, the growth rescue activity is reported as -82.3% (inactive). For `CN(C)c1ccc(C=c2c3ccccc3n3c2c2c([n+]3C)CCCC2)cc1`, the growth rescue activity was -74.1% (inactive). With `O=S1OC(c2ccccc2)c2cc(Cl)ccc21` (centres undefined) the growth rescue activity was -14.3% (inactive). With `Oc1cccc(/C=N/N(Cc2ccccc2)c2ccccc2)c1` the growth rescue activity was -91.5% (inactive). In the case of `CCCCNc1c(-c2cccc(Sc3ccc(OC)cc3)c2)nc2ccccn12`, the growth rescue activity is reported as -86.4% (inactive). With `CCCCC(CC)c1nnc(NC(=O)c2cccs2)s1` (centres undefined) the growth rescue activity was -59.6% (inactive). In the case of `Cc1cccc(Oc2nc(-c3ccccn3)nc3ccccc23)c1`, the growth rescue activity is reported as -67.8% (inactive). For `Oc1c(CN2CCCC2)cc(COCc2ccccc2)c2cccnc12`, the growth rescue activity was 23.1% (inactive). For `O=C(CC1(O)C(=O)Nc2cc(Cl)cc(Cl)c21)c1ccncc1` (centres undefined), the growth rescue activity was -23.3% (inactive). For `CN1C(=S)SC(N(O)C(=O)Nc2cccc3ccccc23)C1(C)C` (centres undefined), the growth rescue activity was 0.395% (inactive). In the case of `CC(=O)N1CC[n+]2c(-c3ccc(Cl)cc3)csc21`, the growth rescue activity is reported as -24.8% (inactive). For `CCC(C)c1ccc(NC(=S)NCCn2cc(Br)cn2)cc1` (centres undefined), the growth rescue activity was -33.1% (inactive). For `Clc1ccccc1CN(Cc1ccco1)Cc1nnnn1C1CCCC1`, the growth rescue activity was -4.89% (inactive). With `CC(C)N1CCN(c2ccc(OC[C@H]3CO[C@](Cn4cncn4)(c4ccc(Cl)cc4Cl)O3)cc2)CC1` the growth rescue activity was -63.3% (inactive).
